Literature values in article PMC10778198, “First-in-Human Dose-Escalation Study of the Novel Oral Depsipeptide Class I-Targeting HDAC Inhibitor Bocodepsin (OKI-179) in Patients with Advanced Solid Tumors” (Cancers, 2023).

Columns and labels:
[1] = tested on: murine (syngeneic) and human cancer cell line xenograft models; parameters: method as in PMID 34965958, PMID 31235619; details: single agent; colorectal cancer, triple-negative breast cancer, diffuse large B-cell lymphoma models; cited from earlier work
[2] = tested on: metastatic NRAS-mutated melanoma; parameters: method as in earlier work; details: combination with binimetinib, phase 2 data, previously treated with immunotherapy; cited from earlier work

Q: What does the source list for `CC(C)[C@H](N)C(=O)SCC/C=C/[C@@H]1CC(=O)NCc2nc(cs2)C(=O)NC(C)(C)C(=O)N[C@@H](C(C)C)C(=O)O1` [OKI-179, Bocodepsin]?
A: antitumor activity [1]: significant antitumor activity; overall response rate (ORR) [2]: 38%
